Source: patent US5876761A, “Sustained release formulations of water soluble peptides” (Novartis AG, priority 1990, dated 1999)
“Also recorded” adds a separate entry of the source.

Experiment: Stability of octreotide pamoate in sustained release formulations
Assay type: physicochemical
Details: in sustained release formulations (microparticles); hydrate

C[C@@H](O)[C@@H]1NC(=O)[C@H](CCCCN)NC(=O)[C@@H](Cc2c[nH]c3ccccc23)NC(=O)[C@H](Cc2ccccc2)NC(=O)[C@@H](NC(=O)[C@H](N)Cc2ccccc2)CSSC[C@@H](C(=O)N[C@H](CO)[C@@H](C)O)NC1=O [pamoate, octreotide pamoate hydrate]
stability: excellent stability; also recorded: very stable
